Assay results as given in patent EP1077966B1, “BIPHENYL SULFONYL ARYL CARBOXYLIC ACIDS USEFUL IN THE TREATMENT OF INSULIN RESISTANCE AND HYPERGLYCEMIA” (Wyeth, priority 1998, dated 1999).
Marks after values point to notes of the source that are not given here.

Each compound was assayed against T1, Human recombinant PTP1B (Homo sapiens, UniProt P18031) (assay: Inhibition of tri-phosphorylated insulin receptor dodecaphosphopeptide dephosphorylation by hPTP1B (malachite green-ammonium molybdate phosphate detection)). Details: substrate phosphotyrosyl dodecapeptide […] (insulin receptor 1142-1153), 37°C, 30 min, pH 7.4.
T1 construct: made in house
T1 sequence (P18031 1-435): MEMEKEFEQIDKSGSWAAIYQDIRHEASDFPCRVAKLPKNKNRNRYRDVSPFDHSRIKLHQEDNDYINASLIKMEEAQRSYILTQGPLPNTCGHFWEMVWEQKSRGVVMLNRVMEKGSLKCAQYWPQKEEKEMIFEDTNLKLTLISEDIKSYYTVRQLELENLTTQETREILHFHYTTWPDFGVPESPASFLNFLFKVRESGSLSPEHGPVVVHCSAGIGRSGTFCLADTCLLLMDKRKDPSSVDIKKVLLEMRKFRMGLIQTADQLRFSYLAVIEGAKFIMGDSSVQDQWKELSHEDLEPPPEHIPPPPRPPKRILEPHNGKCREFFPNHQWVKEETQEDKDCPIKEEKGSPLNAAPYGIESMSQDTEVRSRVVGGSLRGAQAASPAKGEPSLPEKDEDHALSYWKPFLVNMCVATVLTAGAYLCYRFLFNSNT
Type: biochemical

First: O=C(O)c1ccc(S(=O)(=O)Oc2ccc(-c3ccc(-c4c(Cc5ccccc5)oc5ccccc45)cc3)cc2)cc1O [Example 1, 4-[4'-(2-Benzyl-benzofuran-3-yl)-biphenyl-4-yloxysulfonyl]-2-hydroxy-benzoic acid]
Second: O=C(O)c1cc(S(=O)(=O)Oc2ccc(-c3ccc(-c4c(Cc5ccccc5)oc5ccccc45)cc3)cc2)ccc1O [Example 2, 5-[4'-(2-Benzyl-benzofuran-3-yl)-biphenyl-4-yloxysulfonyl]-2-hydroxy-benzoic acid]
The IC50 of the first is 1.5-fold higher: 39 nM for the first, 26 nM for the second. The second is the more potent here.

`O=C(O)c1ccc(S(=O)(=O)Oc2ccc(-c3ccc(-c4c(Cc5ccccc5)oc5ccccc45)cc3)cc2)cc1` [Example 3, 4-[4'-(2-Benzyl-benzofuran-3-yl)-biphenyl-4-yloxysulfonyl]-benzoic acid] and `O=C(O)c1cccc(S(=O)(=O)Oc2ccc(-c3ccc(-c4c(Cc5ccccc5)oc5ccccc45)cc3)cc2)c1` [Example 4, 3-[4'-(2-Benzyl-benzofuran-3-yl)-biphenyl-4-yloxysulfonyl]-benzoic acid] are within 1.5-fold of each other in IC50: 75 nM for the first, 106 nM for the second.

Compared with `O=C(O)c1ccc(S(=O)(=O)Oc2ccc(-c3ccc(-c4coc5ccccc45)cc3)cc2)cc1O` [Example 5], `Cc1sc(Cc2ccccc2)c(-c2ccc(-c3ccc(OS(=O)(=O)c4ccc(C(=O)O)c(O)c4)cc3)cc2)c1C` [Example 10, 4-[4'-(2-Benzyl-4,5-dimethyl-thiophen-3-yl)-biphenyl-4-yloxysulfonyl]-2-hydroxy-benzoic acid] is 11-fold lower in IC50: 354 nM for the first, 32 nM for the second. The second is the more potent here.

`Cc1cc(-c2ccc(-c3c(Cc4ccccc4)oc4ccccc34)cc2)cc(C)c1OS(=O)(=O)c1ccc(C(=O)O)c(O)c1` [Example 6, 4-[4'-(2-Benzyl-benzofuran-3-yl)-3,5-dimethyl-biphenyl-4-yloxysulfonyl]-2-hydroxy-benzoic acid] and `O=C(O)c1ccc(S(=O)(=O)Oc2ccc(-c3ccc(-c4c(Cc5ccccc5)oc5ccccc45)cc3)cc2[N+](=O)[O-])cc1O` [Example 7, 4-[4'-(2-Benzyl-benzofuran-3-yl)-3-nitro-biphenyl-4-yloxysulfonyl]-2-hydroxy-benzoic acid] are within 1.5-fold of each other in IC50: 34 nM for the first, 29 nM for the second.

Going from `O=C(O)c1ccc(S(=O)(=O)Oc2ccc(-c3ccc(-c4c(C(=O)c5ccccc5)oc5ccccc45)cc3)cc2[N+](=O)[O-])cc1O` [Example 8, 4-[4'-(2-Benzoyl-benzofuran-3-yl)-3-nitro-biphenyl-4-yloxysulfonyl]-2-hydroxy-benzoic acid] to `O=C(O)c1ccc(S(=O)(=O)Oc2ccc(-c3ccc(-c4c(C(=O)c5ccccc5)oc5ccccc45)cc3)cc2C2CCCC2)cc1O` [Example 9, 4-[4'-(2-Benzoyl-benzofuran-3-yl)-3-cyclopentyl-biphenyl-4-yloxysulfonyl]-2-hydroxy-benzoic acid], the IC50 falls from 178 nM to 40 nM (4.5-fold). The second is the more potent here.

`O=C(O)c1ccc(S(=O)(=O)Oc2ccc(-c3ccc(-c4c(Cc5ccccc5)sc5ccccc45)cc3)cc2)cc1O` [Example 11, 4-[4'-(2-Benzyl-benzo[b]thiophen-3-yl)-biphenyl-4-yloxysulfonyl]-2-hydroxy-benzoic acid] and `O=C(O)c1ccc(S(=O)(=O)Oc2ccc(-c3ccc(-c4c(Cc5ccccc5)sc5ccccc45)cc3)cc2Br)cc1O` [Example 12, 4-[4'-(2-Benzyl-benzo[b]thiophen-3-yl)-3-bromo-biphenyl-4-yloxysulfonyl]-2-hydroxy-benzoic acid] are within 1.5-fold of each other in IC50: 28 nM for the first, 24 nM for the second.

Work on `O=C(O)c1ccc(S(=O)(=O)Oc2c(Br)cc(-c3ccc(-c4c(Cc5ccccc5)sc5ccccc45)cc3)cc2Br)cc1O` [Example 13, 4-[4'-(2-Benzyl-benzo[b]thiophen-3-yl)-3,5-dibromo-biphenyl-4-yloxysulfonyl]-2-hydroxy-benzoic acid] yielded an IC50 of 30 nM.

These compounds were tested on diabetic (ob/ob) mice (assay: Blood glucose lowering activity in diabetic (ob/ob) mice). Details: Dose 25 mg/Kg, plasma glucose relative to vehicle treated mice, statistically (p < 0.05) significant.
Type: in vivo
Description: The procedures used and results obtained are briefly described below.
The non-insulin dependent diabetic (NIDDM) syndrome can be typically characterizes by obesity, hyperglycemia, abnormal insulin secretion, hyperinsulinemia and insulin resistance.
In each test procedure, mice [Male or female ob/ob (C57 B1/6J) and their lean litermates (ob/+ or +/+, Jackson Laboratories) ages 2 to 5 months (10 to 65 g)] of a similar age were randomized according to body weight into 4 groups of 10 mice. The mice were housed 5 per cage and are maintained on normal rodent chow with water ad libitum. Mice received test compound daily by gavage (suspended in 0.5 ml of 0.5% methyl cellulose); dissolved in the drinking water; or admixed in the diet. The dose of compounds given ranges from 2.5 to 200 mg/kg body weight/day. The dose is calculated based on the fed weekly body weight and is expressed as active moiety. […] Control mice received vehicle only.
On the morning of Day 4, 7 or 14 two drops of blood (approximetly 50 ul) were collected into sodium fluoride containing tubes either from the tail vein or after decapitation. […] The plasma was isolated by centrifugation and the concentration of glucose is measured enzymatically on an Abbott V.P. Analyzer.
For each mouse, the percentage change in plasma glucose on Day 4, 7 or 14 is calculated relative to the mean plasma glucose of the vehicle treated mice. […]

In the case of `O=C(O)c1ccc(S(=O)(=O)Oc2c(Br)cc(-c3ccc(-c4c(Cc5ccccc5)sc5ccccc45)cc3)cc2Br)cc1O` [Example 13, 4-[4'-(2-Benzyl-benzo[b]thiophen-3-yl)-3,5-dibromo-biphenyl-4-yloxysulfonyl]-2-hydroxy-benzoic acid], the “% Change Glucose from Vehicle” value is reported as -24.6^a %.
